From patent US20060069132A1, “Azolecarboxamide herbicides” (priority 2004, published 2006)

Assays:
Surinam grass = assay: Test C pre-/postemergence herbicide test; format: in vivo, Urochloa decumbens; conditions: for Surinam Grass plant response rating: 500 g ai/ha
Method in brief: (§1)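 Greenhouse-grown plants were evaluated visually 12 to 14 days after treatment, with 100 meaning complete control and 0 no effect. Application was preemergence, or postemergence at 2 to 18 cm.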

kochia = assay: Test C pre-/postemergence herbicide test; format: in vivo, Kochia scoparia; conditions: for Kochia plant response rating: 500 g ai/ha
Method in brief: as §1

chickweed = assay: Test C postemergence herbicide test; format: in vivo, Stellaria media; conditions: for Chickweed plant response rating: 500 g ai/ha
Protocol: At the same time, plants selected from these crop and weed species and also winter barley (Hordeum vulgare L.), blackgrass (Alopecurus myosuroides Huds.), canarygrass (Phalaris minor Retz.), chickweed (Stellaria media (L.) Vill.), downy bromegrass (Bromus tectorum L.), green foxtail (Setaria viridis (L.) Beauv.), Italian ryegrass (Lolium multiflorum Lam.), wheat (Triticum aestivum L.), wild oat (Avenafatua L.) and windgrass (Apera spica-venti (L.) Beauv.) were treated with postemergence applications of some of the test chemicals formulated in the same manner. Plants ranged in height from 2 to 18 cm (1- to 4-leaf stage) for postemergence treatments. Plant species in the flooded paddy test consisted of rice (Oryza sativa), smallflower umbrella sedge (Cyperus difformis L.), ducksalad (Heteranthera limosa (Sw.) Willd.) and barnyardgrass (Echinochloa crus-galli (L.) Beauv.) grown to the 2-leaf stage for testing. Treated plants and controls were maintained in a greenhouse for 12 to 14 days, after which time all species were compared to controls and visually evaluated. Plant response ratings, summarized in Table C, are based on a scale of 0 to 100 where 0 is no effect and 100 is complete control. A dash (-) response means no test result.

giant foxtail [1] = assay: Test C pre-/postemergence herbicide test; format: in vivo, Setaria faberi; conditions: for Foxtail, Giant plant response rating: 500 g ai/ha
Method in brief: as §1

large crabgrass = assay: Test A pre-/postemergence herbicide test; format: in vivo, Digitaria sanguinalis; conditions: for Plant response rating, Crabgrass, Large: Postemergence; for Crabgrass, Large plant response rating: Preemergence
Method in brief: (§2)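 Plants are held in greenhouse about ten days after treatment, then compared with untreated controls and scored 0 (no effect) to 100 (complete control). Preemergence dosing is a directed soil spray on sown sandy loam; postemergence dosing is spray to runoff at 2–10 cm height.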

johnsongrass = assay: Test C pre-/postemergence herbicide test; format: in vivo, Sorghum halepense; conditions: for Johnsongrass plant response rating: 500 g ai/ha
Method in brief: as §1

redroot pigweed = assay: Test A pre-/postemergence herbicide test; format: in vivo, Amaranthus retroflexus; conditions: for Plant response rating, Pigweed: Postemergence; for Pigweed plant response rating: Preemergence
Method in brief: as §2

yellow nutsedge = assay: Test C pre-/postemergence herbicide test; format: in vivo, Cyperus esculentus; conditions: for Nutsedge, Yellow plant response rating: 500 g ai/ha
Method in brief: as §1

giant foxtail [2] = assay: Test A pre-/postemergence herbicide test; format: in vivo, Setaria faberi; conditions: for Plant response rating, Foxtail, Giant: Postemergence; for Foxtail, Giant plant response rating: Preemergence
Method in brief: as §2

[3] = 31 g ai/ha, preemergence, scale 0 to 100
[4] = postemergence, 125 g ai/ha, scale 0 to 100
[5] = postemergence, 31 g ai/ha, scale 0 to 100
[6] = postemergence, 62 g ai/ha, scale 0 to 100
[7] = 125 g ai/ha, scale 0-100, preemergence
[8] = Postemergence, 125 g ai/ha, scale 0 to 100, 0 no effect, 100 complete control
[9] = 500 g ai/ha, 0 to 100 scale, 0 no effect, 100 complete control
[10] = 2000 g ai/ha, 0 to 100 scale, 0 no effect, 100 complete control
[11] = 500 g ai/ha, visual rating, 0 to 100 scale (0 no effect, 100 complete control)
[12] = 125 g ai/ha, scale 0 (no effect) to 100 (complete control), visual, 12 to 14 days, preemergence
[13] = 250 g ai/ha, scale 0 to 100 (0 no effect, 100 complete control), visual, 12 to 14 days, preemergence
[14] = Postemergence, 250 g ai/ha, scale 0 to 100, 0 no effect, 100 complete control
[15] = Preemergence, scale 0 to 100, 0 no effect, 100 complete control

C=Cn1nc(C(C)(C)C)cc1C(=O)Nc1cccc(C(=O)NCC)c1 [Compound 33]
10: Plant response rating, Foxtail, Giant (giant foxtail [1]; [3]) | Plant response rating, Nutsedge, Yellow (yellow nutsedge; [4])
85: Plant response rating, Crabgrass, Large (large crabgrass; [10]) | Plant response rating, Pigweed (redroot pigweed; [9]) | Plant response rating, Pigweed (redroot pigweed; [10]) | Plant response rating, Foxtail, Giant (giant foxtail [2]; [10])
65: Plant response rating, Crabgrass, Large (large crabgrass; [9])
0: Plant response rating, Nutsedge, Yellow (yellow nutsedge; 16 g ai/ha, scale 0 to 100, last section of Table C, preemergence) | Plant response rating, Nutsedge, Yellow (yellow nutsedge; [3]) | Plant response rating (0 = no effect, 100 = complete control), Nutsedge, Yellow (yellow nutsedge; 62 g ai/ha, preemergence) | Plant response rating, Nutsedge, Yellow (yellow nutsedge; [5]) | Plant response rating, Nutsedge, Yellow (yellow nutsedge; [6])
100: Plant response rating (0 = no effect, 100 = complete control), Kochia (kochia; 62 g ai/ha, preemergence) | Plant response rating, Kochia (kochia; [7]) | Plant response rating, Chickweed (chickweed; [8]) | Pigweed plant response rating (redroot pigweed; [11]) | Pigweed plant response rating (redroot pigweed; [10])
20: Plant response rating, Surinam Grass (Surinam grass; [3]) | Plant response rating (0 = no effect, 100 = complete control), Surinam Grass (Surinam grass; 62 g ai/ha, preemergence) | Plant response rating (0 = no effect, 100 = complete control), Foxtail, Giant (giant foxtail [1]; 62 g ai/ha, preemergence) | Plant response rating, Johnsongrass (johnsongrass; [3]) | Plant response rating (0 = no effect, 100 = complete control), Johnsongrass (johnsongrass; 62 g ai/ha, preemergence)
80: Plant response rating, Kochia (kochia; [3]) | Plant response rating, Johnsongrass (johnsongrass; [7]) | Foxtail, Giant plant response rating (giant foxtail [2]; [11])
90: Plant response rating, Kochia (kochia; [8]) | Plant response rating, Kochia (kochia; [6]) | Plant response rating, Chickweed (chickweed; [6]) | Crabgrass, Large plant response rating (large crabgrass; [11]) | Plant response rating, Johnsongrass (johnsongrass; [8]) | Plant response rating, Johnsongrass (johnsongrass; [6])
50: Plant response rating, Surinam Grass (Surinam grass; [4]) | Plant response rating, Surinam Grass (Surinam grass; [5]) | Plant response rating, Surinam Grass (Surinam grass; [6])
40: Plant response rating, Chickweed (chickweed; [5])
95: Crabgrass, Large plant response rating (large crabgrass; [10]) | Foxtail, Giant plant response rating (giant foxtail [2]; [10])
60: Plant response rating, Kochia (kochia; [5]) | Plant response rating, Foxtail, Giant (giant foxtail [1]; [7])
30: Plant response rating, Chickweed (chickweed; postemergence, 16 g ai/ha, scale 0 to 100) | Plant response rating, Foxtail, Giant (giant foxtail [1]; [8]) | Plant response rating, Foxtail, Giant (giant foxtail [1]; [5]) | Plant response rating, Foxtail, Giant (giant foxtail [1]; [6])
70: Plant response rating, Johnsongrass (johnsongrass; [5]) | Plant response rating, Foxtail, Giant (giant foxtail [2]; [9])

C=CCNC(=O)c1cccc(NC(=O)c2cc(C(C)(C)C)nn2CC)c1 [Compound 46]
50: Surinam Grass plant response rating (Surinam grass; Postemergence, scale 0 to 100) | Plant response rating, Surinam Grass (Surinam grass; [14]) | Plant response rating (0 = no effect, 100 = complete control), Johnsongrass (johnsongrass; 62 g ai/ha, preemergence)
60: Plant response rating, Surinam Grass (Surinam grass; [13]) | Plant response rating, Foxtail, Giant (giant foxtail [1]; [12]) | Plant response rating, Foxtail, Giant (giant foxtail [1]; [8]) | Plant response rating, Foxtail, Giant (giant foxtail [1]; [14]) | Plant response rating, Johnsongrass (johnsongrass; [8]) | Plant response rating, Johnsongrass (johnsongrass; [6])
65: Crabgrass, Large plant response rating (large crabgrass; [11])
20: Plant response rating, Nutsedge, Yellow (yellow nutsedge; [14]) | Plant response rating, Nutsedge, Yellow (yellow nutsedge; [6])
30: Plant response rating, Surinam Grass (Surinam grass; [12])
10: Plant response rating (0 = no effect, 100 = complete control), Surinam Grass (Surinam grass; 62 g ai/ha, preemergence) | Plant response rating (0 = no effect, 100 = complete control), Foxtail, Giant (giant foxtail [1]; 62 g ai/ha, preemergence)
75: Plant response rating, Crabgrass, Large (large crabgrass; [9])
70: Plant response rating, Chickweed (chickweed; [8]) | Plant response rating, Chickweed (chickweed; [6]) | Foxtail, Giant plant response rating (giant foxtail [1]; Postemergence, scale 0 to 100)
80: Surinam Grass plant response rating (Surinam grass; [15]) | Plant response rating, Chickweed (chickweed; [14]) | Plant response rating, Johnsongrass (johnsongrass; [12]) | Plant response rating, Foxtail, Giant (giant foxtail [2]; [9])
40: Plant response rating, Surinam Grass (Surinam grass; [6]) | Plant response rating, Foxtail, Giant (giant foxtail [1]; [6]) | Nutsedge, Yellow plant response rating (yellow nutsedge; Postemergence, scale 0 to 100)
0: Plant response rating (0 = no effect, 100 = complete control), Kochia (kochia; 62 g ai/ha, preemergence) | Plant response rating (0 = no effect, 100 = complete control), Nutsedge, Yellow (yellow nutsedge; 62 g ai/ha, preemergence) | Plant response rating, Nutsedge, Yellow (yellow nutsedge; [12]) | Plant response rating, Nutsedge, Yellow (yellow nutsedge; [13]) | Nutsedge, Yellow plant response rating (yellow nutsedge; [15])
100: Plant response rating, Kochia (kochia; [13]) | Kochia plant response rating (kochia; Postemergence, scale 0 to 100) | Plant response rating, Kochia (kochia; [14]) | Kochia plant response rating (kochia; [15]) | Chickweed plant response rating (chickweed; Postemergence, scale 0 to 100) | Plant response rating, Foxtail, Giant (giant foxtail [1]; [13]) | Foxtail, Giant plant response rating (giant foxtail [1]; [15]) | Johnsongrass plant response rating (johnsongrass; [15]) | Plant response rating, Pigweed (redroot pigweed; [9]) | Plant response rating, Pigweed (redroot pigweed; [10]) | Pigweed plant response rating (redroot pigweed; [11]) | Pigweed plant response rating (redroot pigweed; [10]) | Plant response rating, Foxtail, Giant (giant foxtail [2]; [10]) | Foxtail, Giant plant response rating (giant foxtail [2]; [10])
90: Plant response rating, Kochia (kochia; [12]) | Plant response rating, Kochia (kochia; [6]) | Plant response rating, Crabgrass, Large (large crabgrass; [10]) | Crabgrass, Large plant response rating (large crabgrass; [10]) | Plant response rating, Johnsongrass (johnsongrass; [13]) | Johnsongrass plant response rating (johnsongrass; Postemergence, scale 0 to 100) | Foxtail, Giant plant response rating (giant foxtail [2]; [11])

C#CCn1nc(C(C)(C)C)cc1C(=O)Nc1cccc(C(=O)NCC)c1 [Compound 50]
0: Plant response rating (0 = no effect, 100 = complete control), Surinam Grass (Surinam grass; 62 g ai/ha, preemergence) | Plant response rating, Kochia (kochia; [6]) | Chickweed plant response rating (chickweed; Postemergence, scale 0 to 100) | Plant response rating, Chickweed (chickweed; [8]) | Plant response rating, Chickweed (chickweed; [14]) | Plant response rating, Chickweed (chickweed; [6]) | Plant response rating (0 = no effect, 100 = complete control), Foxtail, Giant (giant foxtail [1]; 62 g ai/ha, preemergence) | Plant response rating, Foxtail, Giant (giant foxtail [1]; [12]) | Plant response rating, Foxtail, Giant (giant foxtail [1]; [13]) | Foxtail, Giant plant response rating (giant foxtail [1]; Postemergence, scale 0 to 100) | Plant response rating, Foxtail, Giant (giant foxtail [1]; [8]) | Plant response rating, Foxtail, Giant (giant foxtail [1]; [14]) | Plant response rating, Foxtail, Giant (giant foxtail [1]; [6]) | Plant response rating (0 = no effect, 100 = complete control), Johnsongrass (johnsongrass; 62 g ai/ha, preemergence) | Plant response rating, Johnsongrass (johnsongrass; [13]) | Johnsongrass plant response rating (johnsongrass; Postemergence, scale 0 to 100) | Plant response rating, Johnsongrass (johnsongrass; [8]) | Plant response rating, Johnsongrass (johnsongrass; [14]) | Johnsongrass plant response rating (johnsongrass; [15]) | Plant response rating, Johnsongrass (johnsongrass; [6]) | Plant response rating (0 = no effect, 100 = complete control), Nutsedge, Yellow (yellow nutsedge; 62 g ai/ha, preemergence)
100: Plant response rating, Kochia (kochia; [13]) | Kochia plant response rating (kochia; [15])
30: Plant response rating (0 = no effect, 100 = complete control), Kochia (kochia; 62 g ai/ha, preemergence)
50: Plant response rating, Surinam Grass (Surinam grass; [14])
80: Plant response rating, Surinam Grass (Surinam grass; [13]) | Nutsedge, Yellow plant response rating (yellow nutsedge; [15])
10: Plant response rating, Surinam Grass (Surinam grass; [12]) | Plant response rating, Surinam Grass (Surinam grass; [6]) | Kochia plant response rating (kochia; Postemergence, scale 0 to 100) | Plant response rating, Kochia (kochia; [8]) | Plant response rating, Kochia (kochia; [14]) | Foxtail, Giant plant response rating (giant foxtail [1]; [15]) | Plant response rating, Nutsedge, Yellow (yellow nutsedge; [12])
40: Plant response rating, Nutsedge, Yellow (yellow nutsedge; [13])
85: Surinam Grass plant response rating (Surinam grass; [15]) | Plant response rating, Kochia (kochia; [12])
